Measured values published in patent publication US11136324B2, “Substituted imidazoles as apoptosis signal regulating kinase 1 inhibitors” (Jiangsu Hansoh Pharmaceutical Group Co., Ltd., priority 2017, dated 2021).

How the values were obtained:
[1] = Pharmacokinetic (PK) assay in mice; format: in vivo; conditions: Balb/c male mice, single intragastric administration, 5 mg/kg, plasma; for AUC(0-t) / AUC(0-inf) / half-life / MRT / Cmax: mouse, po; for AUC(0-t): read-out: Area under curve AUC0-t; for AUC(0-inf): read-out: Area under curve AUC0-∞; for half-life: read-out: Half-life t1/2 (converted); for MRT: read-out: Mean residence time MRT; for Cmax: read-out: Plasma concentration Cmax
Description: 2. Pharmacokinetic (PK) Assay in Mice
The pharmacokinetic test of the preferred examples of the present invention in mice was carried out in Balb/c male mice (Shanghai Jiesijie Laboratory Animal Co., LTD).
Administration mode: single intragastric administration.
Administration dosage: 5 mg/10 ml/kg.
Formulation: 0.5% CMC-Na, ultrasonic dissolution.
Sampling points: 0.5, 1, 2, 4, 6, 8 and 24 hours after administration.
1) 0.1 mL of blood was taken from the orbit, placed in a K2EDTA tube, and centrifuged for 5˜20 min at room temperature at 1000˜3000×g to separate the plasma, which was then stored at −80° C.
2) 160 μL of acetonitrile was added to 40 μL of plasma sample for precipitation, and then the mixture was centrifuged for 5˜20 minutes at 500˜2000×g.
3) 100 μL, of processed supernatant was taken and analyzed by LC/MS/MS assay to determine the concentration of the test compound.
LC-MS/MS Assay: • Liquid chromatography condition: Shimadzu LC-20AD pump • Mass spectrometry condition: AB Sciex API 4000 mass spectrometer • Chromatographic column: phenomenex Gemiu 5 μm C18 50×4.6 mm • Mobile phase: solution A was 0.1% aqueous formic acid solution, and solution B was acetonitrile • Flow rate: 0.8 mL/min • Elution time: 0-3.5 minutes gradient elution
The main parameters were calculated using WinNonlin 6.1.

ASK1 kinase = ASK1 kinase (Homo sapiens (Human), UniProt Q99683); assay: ASK1 enzymatic test (TR-FRET); format: biochemical; conditions: ASK1 kinase activity
Chain of ASK1 kinase (Q99683 whole entry): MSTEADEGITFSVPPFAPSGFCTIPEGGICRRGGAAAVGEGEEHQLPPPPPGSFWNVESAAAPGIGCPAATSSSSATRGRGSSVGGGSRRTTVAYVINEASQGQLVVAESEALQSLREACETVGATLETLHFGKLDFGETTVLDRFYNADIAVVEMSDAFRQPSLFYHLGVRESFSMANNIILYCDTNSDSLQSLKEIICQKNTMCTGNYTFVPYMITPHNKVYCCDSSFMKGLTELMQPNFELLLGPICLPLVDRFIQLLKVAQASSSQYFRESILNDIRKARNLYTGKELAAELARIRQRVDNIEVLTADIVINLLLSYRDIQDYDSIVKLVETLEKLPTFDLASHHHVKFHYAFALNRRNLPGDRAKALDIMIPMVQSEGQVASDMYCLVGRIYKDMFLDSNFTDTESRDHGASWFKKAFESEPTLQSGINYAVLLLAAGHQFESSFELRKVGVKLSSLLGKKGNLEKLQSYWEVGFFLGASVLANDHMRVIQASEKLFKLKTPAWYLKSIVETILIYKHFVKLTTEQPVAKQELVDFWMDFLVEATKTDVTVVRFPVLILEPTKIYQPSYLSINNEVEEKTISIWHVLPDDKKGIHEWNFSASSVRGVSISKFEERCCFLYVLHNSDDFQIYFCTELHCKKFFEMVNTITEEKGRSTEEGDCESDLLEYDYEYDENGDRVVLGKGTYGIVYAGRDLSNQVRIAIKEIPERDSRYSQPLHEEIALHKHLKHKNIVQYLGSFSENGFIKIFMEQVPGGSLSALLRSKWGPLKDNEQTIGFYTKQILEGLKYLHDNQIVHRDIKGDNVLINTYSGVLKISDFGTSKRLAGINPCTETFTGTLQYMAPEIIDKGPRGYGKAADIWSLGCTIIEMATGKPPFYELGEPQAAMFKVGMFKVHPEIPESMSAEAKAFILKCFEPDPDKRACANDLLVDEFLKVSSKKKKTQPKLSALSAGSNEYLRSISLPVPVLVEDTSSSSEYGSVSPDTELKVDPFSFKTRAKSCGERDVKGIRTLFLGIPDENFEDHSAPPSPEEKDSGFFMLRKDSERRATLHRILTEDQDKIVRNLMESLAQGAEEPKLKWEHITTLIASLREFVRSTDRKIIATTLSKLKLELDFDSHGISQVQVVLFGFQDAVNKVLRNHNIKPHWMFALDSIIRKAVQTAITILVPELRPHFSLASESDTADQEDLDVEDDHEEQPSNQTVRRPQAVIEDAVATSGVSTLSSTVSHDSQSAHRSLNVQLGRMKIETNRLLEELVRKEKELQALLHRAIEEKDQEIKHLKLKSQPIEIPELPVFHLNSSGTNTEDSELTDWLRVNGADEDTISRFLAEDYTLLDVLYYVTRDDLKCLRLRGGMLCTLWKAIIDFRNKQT
Description: In this test, the fluorescence-resonance energy transfer (TR-FRET) method was used to determine the inhibition effect of the test compounds on ASK1 kinase activity, and the half maximal inhibitory concentration IC50 of the compounds on ASK1 kinase activity was obtained.
1) 1˜5 μL of ASK1 enzyme solution was added to a 384-well plate, and the final concentration of the enzyme was 0.220 nM.
2) 1˜5 μL of gradient-diluted compound solution was added.
3) 1˜5 μL of a substrate mixture containing substrate polypeptides (final concentration: 100˜5000 nM) and ATP (final concentration: 100˜1000 uM) were added.
4) The mixture was incubated at room temperature for 0.5 to 5 hours.
5) 10 μL of EDTA and test solution containing labeled antibody were added, and the plate was incubated at room temperature for 2 to 24 hours.
6) The fluorescence signal value of each well was determined by a microplate reader at about 615 nm and 665 nm.
7) The inhibition rate was calculated by the fluorescence signal value.
8) The IC50 of the compound was obtained by curve fitting according to the inhibition rate at different concentrations.

| SMILES | Peak time tmax [1] | AUC(0-t) [1] | AUC(0-inf) [1] | half-life [1] | MRT [1] | Cmax [1] | IC50 (ASK1 kinase) |
| --- | --- | --- | --- | --- | --- | --- | --- |
| Cc1cc(F)c(C(=O)Nc2cccc(-c3nnc4n3C(C(F)(F)F)CC4)n2)cc1-n1cnc(C2CC2)c1 (stereo not shown) [Example 41, 5-(4-Cyclopropyl-1H-imidazol-1-yl)-2-fluoro-4-methyl-N-(6-(5-(trifluoromethyl)-6,7-di hydro-5H-pyrrolo[2,1-c][1,2,4]triazol-3-yl)pyridin-2-yl)benzamide] | 1 h | 83900 ng·h/mL | 83900 ng·h/mL | 2 h | 4 h | 17100 ng/mL | 7.7 nM |
| Cc1cc(F)c(C(=O)Nc2cccc(-c3nnc4n3[C@@H](C)CC4)n2)cc1-n1cnc(C(C)C)c1 [Example 14, (S)-2-Fluoro-5-(4-isopropyl-1H-imidazol-1-yl)-4-methyl-N-(6-(5-methyl-6,7-dihydro-5H-pyrrolo[2,1-c][1,2,4]triazol-3-yl)pyridin-2-yl)benzamide] | 1 h | 21000 ng·h/mL | 21000 ng·h/mL | 1.3 h | 2.8 h | 6150 ng/mL | 9 nM |
| CCC[C@@H]1CCc2nnc(-c3cccc(NC(=O)c4cc(-n5cnc(C6CC6)c5)c(C)cc4F)n3)n21 [Example 59, (R)-5-(4-Cyclopropyl-1H-imidazol-1-yl)-2-fluoro-4-methyl-N-(6-(5-propyl-6,7-dihydro-5H-pyrrolo[2,1-c][1,2,4]triazol-3-yl)pyridin-2-yl)benzamide] | 1 h | 19700 ng·h/mL | 20200 ng·h/mL | 1.4 h | 2.3 h | 7590 ng/mL | 2.9 nM |
| Cc1cc(F)c(C(=O)Nc2cccc(-c3nnc4n3CC(C)C4)n2)cc1-n1cnc(C2CC2)c1 (stereo not shown) [Example 33, 5-(4-Cyclopropyl-1H-imidazol-1-yl)-2-fluoro-4-methyl-N-(6-(6-methyl-6,7-dihydro-5H-pyrrolo[2,1-c][1,2,4]triazol-3-yl)pyridin-2-yl)benzamide] | 0.5 h | 47900 ng·h/mL | 48600 ng·h/mL | 4.7 h | 5.9 h | 5170 ng/mL | 7.2 nM |
| CC[C@H]1CCc2nnc(-c3cccc(NC(=O)c4cc(-n5cnc(C6CC6)c5)c(C)cc4F)n3)n21 [Example 56, (S)-5-(4-Cyclopropyl-1H-imidazol-1-yl)-N-(6-(5-ethyl-6,7-dihydro-5H-pyrrolo[2,1-c][1,2,4]triazol-3-yl)pyridin-2-yl)-2-fluoro-4-methylbenzamide] | 1 h | 38600 ng·h/mL | 42500 ng·h/mL | 2.4 h | 3.6 h | 9940 ng/mL | 5 nM |
| Cc1cc(F)c(C(=O)Nc2cccc(-c3nnc4n3[C@@H](C)CC4)n2)cc1-n1cnc(C(C)(C)C)c1 [Example 16, (S)-5-(4-(tert-Butyl)-1H-imidazol-1-yl)-2-fluoro-4-methyl-N-(6-(5-methyl-6,7-dihydro-5H-pyrrolo[2,1-c][1,2,4]triazol-3-yl)pyridin-2-yl)benzamide] | 1 h | 13600 ng·h/mL | 13900 ng·h/mL | 1.4 h | 2 h | 6580 ng/mL | 4.1 nM |
| CCC[C@H]1CCc2nnc(-c3cccc(NC(=O)c4cc(-n5cnc(C6CC6)c5)c(C)cc4F)n3)n21 [Example 60, (S)-5-(4-Cyclopropyl-1H-imidazol-1-yl)-2-fluoro-4-methyl-N-(6-(5-propyl-6,7-dihydro-5H-pyrrolo[2,1-c][1,2,4]triazol-3-yl)pyridin-2-yl)benzamide] | 1 h | 29000 ng·h/mL | 29900 ng·h/mL | 1.3 h | 2.6 h | 9180 ng/mL | 6.6 nM |
| Cc1cc(F)c(C(=O)Nc2cccc(-c3nnc4n3C[C@H](C)C4)n2)cc1-n1cnc(C2CC2)c1 [Example 34, (R)-5-(4-Cyclopropyl-1H-imidazol-1-yl)-2-fluoro-4-methyl-N-(6-(6-methyl-6,7-dihydro-5H-pyrrolo[2,1-c][1,2,4]triazol-3-yl)pyridin-2-yl)benzamide] | 1 h | 81100 ng·h/mL | 81200 ng·h/mL | 2.5 h | 4.4 h | 13500 ng/mL | 5.2 nM |
| Cc1cc(F)c(C(=O)Nc2cccc(-c3nnc4n3CCC4)n2)cc1-n1cnc(C2CC2)c1 [Example 1, 5-(4-cyclopropyl-1H-imidazol-1-yl)-N-(6-(6,7-dihydro-5H-pyrrolo[2,1-c][1,2,4]triazol-3-yl)pyridin-2-yl)-2-fluoro-4-methylbenzamide] | 0.5 h | 104000 ng·h/mL | 104000 ng·h/mL | 2.9 h | 4.2 h | 18300 ng/mL | 6 nM |
| COC[C@@H]1CCc2nnc(-c3cccc(NC(=O)c4cc(-n5cnc(C6CC6)c5)c(C)cc4F)n3)n21 [Example 11, (S)-5-(4-Cyclopropyl-1H-imidazol-1-yl)-2-fluoro-N-(6-(5-(methoxymethyl)-6,7-dihydro-5H-pyrrolo[2,1-c][1,2,4]triazol-3-yl)pyridin-2-yl)-4-methylbenzamide] | 1 h | 29400 ng·h/mL | 29400 ng·h/mL | 1.1 h | 2.1 h | 13200 ng/mL | 10.6 nM |
| Cc1cc(F)c(C(=O)Nc2cccc(-c3nnc4n3[C@@H](C)CC4)n2)cc1-n1cnc(C2CC2)c1 [Example 9, (S)-5-(4-Cyclopropyl-1H-imidazol-1-yl)-2-fluoro-4-methyl-N-(6-(5-methyl-6,7-dihydro-5H-pyrrolo[2,1-c][1,2,4]triazol-3-yl)pyridin-2-yl)benzamide] | 0.5 h | 38100 ng·h/mL | 38400 ng·h/mL | 4.4 h | 5.5 h | 4370 ng/mL | 5 nM |
| Cc1cc(F)c(C(=O)Nc2cccc(-c3nnc4n3[C@H](C)CC4)n2)cc1-n1cnc(C(C)C)c1 [Example 13, (R)-2-Fluoro-5-(4-isopropyl-1H-imidazol-1-yl)-4-methyl-N-(6-(5-methyl-6,7-dihydro-5H-pyrrolo[2,1-c][1,2,4]triazol-3-yl)pyridin-2-yl)benzamide] | 1 h | 11700 ng·h/mL | 11800 ng·h/mL | 1 h | 2 h | 5060 ng/mL | 2.7 nM |
| Cc1cc(F)c(C(=O)Nc2cccc(-c3nnc4n3[C@H](CF)CC4)n2)cc1-n1cnc(C2CC2)c1 [Example 51, (S)-5-(4-Cyclopropyl-1H-imidazol-1-yl)-2-fluoro-N-(6-(5-(fluoromethyl)-6,7-dihydro-5H-pyrrolo[2,1-c][1,2,4]triazol-3-yl)pyridin-2-yl)-4-methylbenzamide] | 1 h | 57200 ng·h/mL | 57700 ng·h/mL | 3.5 h | 5.8 h | 5890 ng/mL | 4.9 nM |
